This note sets out measurements from patent publication US6809110B2 (Hoffmann-La Roche Inc., priority 2002, dated 2004).

The term melting point denotes the temperature of the solid-liquid transition.

SMILES strings stand for the structures.

For `CCOC(Cc1ccc(OCCc2nc(-c3ccccc3)sc2C)c2ccsc12)C(=O)O` (racemic) [Example 1, [rac]-2-Ethoxy-3-{4-[2-(5-methyl-2-phenyl-thiazol-4-yl)-ethoxy]-benzo[b]thiophen-7-yl}-propionic acid], the melting point was 146 to 148 °C.
The value for `CCOC(Cc1ccc(OCCc2nc(-c3ccccc3)sc2C)c2ccccc12)C(=O)O` (racemic) [Example 51, [rac]-2-Ethoxy-3-{4-[2-(5-methyl-2-phenyl-thiazol-4-yl)-ethoxy]-naphthalen-1-yl}-propionic acid] was 140 to 143 °C; that for `CCOC(Cc1ccc(OCCc2nc(-c3ccc(C)cc3)sc2C)c2ccsc12)C(=O)O` (racemic) [Example 72, [rac]-2-Ethoxy-3-{4-[2-(5-methyl-2-p-tolyl-thiazol-4-yl)-ethoxy]-benzo[b]thiophen-7-yl}-propionic acid] was 126 to 127 °C.
`CCOC(Cc1ccc(OCCc2nc(-c3ccc(C(C)(C)C)cc3)sc2C)c2ccccc12)C(=O)O` (racemic) [Example 73, [rac]-3-(4-{2-[2-(4-tert-Butyl-phenyl)-5-methyl-thiazol-4-yl]-ethoxy}-naphthalen-1-yl)-2-ethoxy-propionic acid]: the melting point was 90 to 93 °C.
`CCOC(Cc1ccc(OCCc2nc(-c3ccc(C(C)(C)C)cc3)sc2C)c2ccsc12)C(=O)O` (racemic) [Example 74, [rac]-3-(4-{2-[2-(4-tert-Butyl-phenyl)-5-methyl-thiazol-4-yl]-ethoxy}-benzo[b]thiophen-7-yl)-2-ethoxy-propionic acid] returned a melting point of 152 to 154 °C.
For `CCOC(Cc1ccc(OCCc2nc(-c3ccc(C(C)C)cc3)sc2C)c2ccsc12)C(=O)O` (racemic) [Example 75, [rac]-2-Ethoxy-3-(4-{2-[2-(4-isopropyl-phenyl)-5-methyl-thiazol-4-yl]-ethoxy}-benzo[b]thiophen-7-yl)-propionic acid], the melting point is 120 to 122 °C.
`CCOC(Cc1ccc(OCCc2nc(-c3ccc(C(C)C)cc3)sc2C)c2ccccc12)C(=O)O` (racemic) [Example 77, [rac]-2-Ethoxy-3-(4-{2-[2-(4-isopropyl-phenyl)-5-methyl-thiazol-4-yl]-ethoxy}-naphthalen-1-yl)-propionic acid] showed a melting point of 111 to 113 °C.
Regarding `CCOC(Cc1ccc(OCCc2nc(-c3ccc(C)cc3)sc2C)c2ccccc12)C(=O)O` (racemic) [Example 78, [rac]-2-Ethoxy-3-{4-[2-(5-methyl-2-p-tolyl-thiazol-4-yl)-ethoxy]-naphthalen-1-yl}-propionic acid], the melting point lay in the range of 140 to 141 °C.
Regarding `Cc1sc(-c2ccccc2)nc1CCOc1ccc(CC(OC(C)C)C(=O)O)c2sccc12` (racemic) [Example 79, [rac]-2-Isopropoxy-3-{4-[2-(5-methyl-2-phenyl-thiazol-4-yl)-ethoxy]-benzo[b]thiophen-7-yl}-propionic acid], the melting point was determined as 73 °C.
As for `CCCOC(Cc1ccc(OCCc2nc(-c3ccccc3)sc2C)c2ccccc12)C(=O)O` (racemic) [Example 80, [rac]-3-{4-[2-(5-Methyl-2-phenyl-thiazol-4-yl)-ethoxy]-naphthalen-1-yl}-2-propoxy-propionic acid], the melting point lay within 95 to 99 °C.
For the compound `COC(Cc1ccc(OCCc2nc(-c3ccc(C)cc3)sc2C)c2ccccc12)C(=O)O` (racemic) [Example 81, [rac]-2-Methoxy-3-{4-[2-(5-methyl-2-p-tolyl-thiazol-4-yl)-ethoxy]-naphthalen-1-yl}-propionic acid], the melting point lay within 155 to 156 °C.
In the case of `CCCOC(Cc1ccc(OCCc2nc(-c3ccc(C)cc3)sc2C)c2ccccc12)C(=O)O` (racemic) [Example 82, [rac]-3-{4-[2-(5-Methyl-2-p-tolyl-thiazol-4-yl)-ethoxy]-naphthalen-1-yl}-2-propoxy-propionic acid], the melting point lay in the range of 123 to 124 °C.
The value for `CCOC(Cc1ccc(OCCc2nc(-c3cc(OC)cc(OC)c3)sc2C)c2ccsc12)C(=O)O` (racemic) [Example 83, [rac]-3-(4-{2-[2-(3,5-Dimethoxy-phenyl)-5-methyl-thiazol-4-yl]-ethoxy}-benzo[b]thiophen-7-yl)-2-ethoxy-propionic acid] was 148 to 150 °C; that for `COc1cc(OC)cc(-c2nc(CCOc3ccc(CC(OC)C(=O)O)c4sccc34)c(C)s2)c1` (racemic) [Example 84, [rac]-3-(4-{2-[2-(3,5-Dimethoxy-phenyl)-5-methyl-thiazol-4-yl]-ethoxy}-benzo[b]thiophen-7-yl)-2-methoxy-propionic acid] was 156 to 157 °C.
The value for `COc1cc(OC)cc(-c2nc(CCOc3ccc(CC(OC(C)C)C(=O)O)c4sccc34)c(C)s2)c1` (racemic) [Example 85, [rac]-3-(4-{2-[2-(3,5-Dimethoxy-phenyl)-5-methyl-thiazol-4-yl]-ethoxy}-benzo[b]thiophen-7-yl)-2-isopropoxy-propionic acid] was 150 to 152 °C; that for `Cc1sc(-c2ccc(C(C)(C)C)cc2)nc1CCOc1ccc(CC(OC(C)C)C(=O)O)c2ccccc12` (racemic) [Example 86, [rac]-3-(4-{2-[2-(4-tert-Butyl-phenyl)-5-methyl-thiazol-4-yl]-ethoxy}-naphthalen-1-yl)-2-isopropoxy-propionic acid] was 75 to 85 °C; that for `CCCOC(Cc1ccc(OCCc2nc(-c3ccc(C(C)(C)C)cc3)sc2C)c2ccsc12)C(=O)O` (racemic) [Example 87, [rac]-3-(4-{2-[2-(4-tert-Butyl-phenyl)-5-methyl-thiazol-4-yl]-ethoxy}-benzo[b]thiophen-7-yl)-2-propoxy-propionic acid] was 76 °C.
Compound `CCOC(Cc1ccc(OCCc2nc(-c3cc(OC)cc(OC)c3)sc2C)c2ccccc12)C(=O)O` (racemic) [Example 88, [rac]-3-(4-{2-[2-(3,5-Dimethoxy-phenyl)-5-methyl-thiazol-4-yl]-ethoxy}-naphthalen-1-yl)-2-ethoxy-propionic acid] had a melting point of 133 to 135 °C.
The value for `COC(Cc1ccc(OCc2sc(-c3ccc(C(F)(F)F)cc3)nc2C)c2ccccc12)C(=O)O` (racemic) [Example 136, [rac]-2-Methoxy-3-{4-[4-methyl-2-(4-trifluoromethyl-phenyl)-thiazol-5-ylmethoxy]-naphthalen-1-yl}-propionic acid] was 190 to 192 °C; that for `CCOC(Cc1ccc(OCc2sc(-c3ccc(C(F)(F)F)cc3)nc2C)c2ccccc12)C(=O)O` (racemic) [Example 137, [rac]-2-Ethoxy-3-{4-[4-methyl-2-(4-trifluoromethyl-phenyl)-thiazol-5-ylmethoxy]-naphthalen-1-yl}-propionic acid] was 186 to 188 °C; that for `COC(Cc1ccc(OCc2sc(-c3ccc(C(F)(F)F)cc3)nc2C)c2ccsc12)C(=O)O` (racemic) [Example 138, [rac]-2-Methoxy-3-{4-[4-methyl-2-(4-trifluoromethyl-phenyl)-thiazol-5-ylmethoxy]-benzo[b]thiophen-7-yl}-propionic acid] was 140 to 142 °C (dec.).
